The source of these data is ChEMBL document CHEMBL5154848, “Synthesis of heterocyclic ring-fused analogs of HMG499 as novel degraders of HMG-CoA reductase that lower cholesterol” (Eur J Med Chem, 2022).

Data set [1] concerns the target T1, 3-hydroxy-3-methylglutaryl-coenzyme A reductase (Cricetulus griseus, UniProt P00347).
T1 sequence (P00347 whole entry): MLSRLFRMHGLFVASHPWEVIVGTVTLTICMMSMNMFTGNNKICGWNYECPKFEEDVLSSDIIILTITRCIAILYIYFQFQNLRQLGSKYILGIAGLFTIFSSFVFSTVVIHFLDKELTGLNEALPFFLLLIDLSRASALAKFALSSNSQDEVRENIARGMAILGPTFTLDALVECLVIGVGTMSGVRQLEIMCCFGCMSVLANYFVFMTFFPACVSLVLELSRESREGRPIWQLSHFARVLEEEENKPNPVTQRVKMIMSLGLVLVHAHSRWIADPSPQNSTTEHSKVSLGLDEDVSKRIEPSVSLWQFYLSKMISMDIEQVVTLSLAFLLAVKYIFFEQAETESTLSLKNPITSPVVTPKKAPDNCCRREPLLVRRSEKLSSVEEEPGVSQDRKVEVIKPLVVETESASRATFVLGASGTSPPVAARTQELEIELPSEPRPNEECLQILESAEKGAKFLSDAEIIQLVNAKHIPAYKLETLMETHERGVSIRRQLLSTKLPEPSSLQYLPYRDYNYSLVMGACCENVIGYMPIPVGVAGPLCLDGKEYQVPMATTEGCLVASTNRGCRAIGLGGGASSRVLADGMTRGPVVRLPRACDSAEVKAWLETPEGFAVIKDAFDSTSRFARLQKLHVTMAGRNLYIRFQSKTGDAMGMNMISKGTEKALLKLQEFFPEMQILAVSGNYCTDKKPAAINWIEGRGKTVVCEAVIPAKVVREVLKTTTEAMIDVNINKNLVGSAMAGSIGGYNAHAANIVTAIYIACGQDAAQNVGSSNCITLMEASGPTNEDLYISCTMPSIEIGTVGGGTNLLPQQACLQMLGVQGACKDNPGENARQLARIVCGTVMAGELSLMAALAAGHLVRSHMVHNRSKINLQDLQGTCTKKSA
The experiment in a line: Induction of degradation of hamster HMGCR (TM1-8)-GFP (1 to 346 residues) transfected in CHO-7 cells incubated for 16 hrs in sterol-depleted medium by fluorescence based microplate reader assay. Type of data set: cell-based.

A short description of data set [2]: Toxicity in human SV589 cells assessed as cholesterol accumulation in lysosome at 10 uM incubated for 16 hrs by immunofluorescence based confocal microscopy. The class given is cell-based. Conditions: sv-589, 16 h.

In data set [1], `CC(=O)n1ncc2c1C(C)(C)C1=CC[C@H]3[C@@H]4CC[C@H]([C@H](C)CCC(=O)Nc5nc6c(C)cccc6s5)[C@@]4(C)CC[C@@H]3[C@@]1(C)C2` came in with an EC50 of 43900 nM. For the compound `CCC(=O)n1cnc2c1C(C)(C)C1=CC[C@H]3[C@@H]4CC[C@H]([C@H](C)CCC(=O)N5CCOCC5)[C@@]4(C)CC[C@@H]3[C@@]1(C)C2`, the Activity entry in data set [2] is reported as “Non-Toxic”. For the same compound, the EC50 in data set [1] stood at 650 nM. On to `CCC(O)(CC)CC[C@@H](C)[C@H]1CC[C@H]2[C@@H]3CC=C4C(C)(C)c5c(ncn5C(C)=O)C[C@]4(C)[C@H]3CC[C@]12C`, for which, in data set [2], the Activity result is on record as “Non-Toxic”. The same compound came in with an EC50 in data set [1] of 630 nM. Regarding `Cc1nc2c(s1)C(C)(C)C1=CC[C@H]3[C@@H]4CC[C@H]([C@H](C)CCC(=O)O)[C@@]4(C)CC[C@@H]3[C@@]1(C)C2`, the Activity entry in data set [2] was “Non-Toxic”. Besides, it took 3370 nM to reach a half-maximal effect in data set [1] (EC50). In turn, `CC(=O)N1CCC(NC(=O)CC[C@@H](C)[C@H]2CC[C@H]3[C@@H]4CC=C5C(C)(C)c6c(cnn6C(C)=O)C[C@]5(C)[C@H]4CC[C@]23C)CC1` displayed an EC50 in data set [1] of 430 nM. On the same count and under the same terms, for `CCOC(=O)c1n[nH]c2c1C[C@@]1(C)C(=CC[C@H]3[C@@H]4CC[C@H]([C@H](C)CCC(=O)N5CCOCC5)[C@@]4(C)CC[C@@H]31)C2(C)C` the value was 530 nM. Same read-out and setting: for `CC(=O)n1ncc2c1C(C)(C)C1=CC[C@H]3[C@@H]4CC[C@H]([C@H](C)CCC(=O)Nc5ncc([N+](=O)[O-])s5)[C@@]4(C)CC[C@@H]3[C@@]1(C)C2` the value was 4800 nM; for `CC(=O)n1cnc2c1C(C)(C)C1=CC[C@H]3[C@@H]4CC[C@H]([C@H](C)C(=O)N5CCOCC5)[C@@]4(C)CC[C@@H]3[C@@]1(C)C2`, 410 nM. In data set [1], `CC(=O)n1ncc2c1C(C)(C)C1=CC[C@H]3[C@@H]4CC[C@H]([C@H](C)CCC(=O)Nc5ncc(C)s5)[C@@]4(C)CC[C@@H]3[C@@]1(C)C2` returned an EC50 of 12600 nM. The compound `CC(=O)n1cnc2c1C(C)(C)C1=CC[C@H]3[C@@H]4CC[C@H]([C@H](C)CCCC(=O)N5CCOCC5)[C@@]4(C)CC[C@@H]3[C@@]1(C)C2` showed an EC50 in data set [1] of 980 nM. In the case of `CNC(=O)CC[C@@H](C)[C@H]1CC[C@H]2[C@@H]3CC=C4C(C)(C)c5c(cnn5C(C)=O)C[C@]4(C)[C@H]3CC[C@]12C`, a half-maximal effect in data set [1] (EC50) was put at 820 nM. `CC(=O)n1ncc2c1C(C)(C)C1=CC[C@H]3[C@@H]4CC[C@H]([C@H](C)CCC(=O)Nc5ccccc5C)[C@@]4(C)CC[C@@H]3[C@@]1(C)C2` had a concentration giving a half-maximal response (EC50) in data set [1] of 4470 nM. On to `C[C@H](CCC(=O)O)[C@H]1CC[C@H]2[C@@H]3CC=C4C(C)(C)c5c(cnn5-c5ccccc5)C[C@]4(C)[C@H]3CC[C@]12C`, for which the Activity result in data set [2] was “Non-Toxic”. The compound also came in with a concentration giving a half-maximal response (EC50) in data set [1] of 8800 nM. For the compound `CCCC(=O)n1cnc2c1C(C)(C)C1=CC[C@H]3[C@@H]4CC[C@H]([C@H](C)CCC(=O)N5CCOCC5)[C@@]4(C)CC[C@@H]3[C@@]1(C)C2`, the Activity entry in data set [2] is on record as “Non-Toxic”. For the same compound, a half-maximal effect in data set [1] (EC50) was put at 520 nM. The compound `CC(=O)n1ncc2c1C(C)(C)C1=CC[C@H]3[C@@H]4CC[C@H]([C@H](C)CCC(=O)NCCN5CCOCC5)[C@@]4(C)CC[C@@H]3[C@@]1(C)C2` returned a concentration giving a half-maximal response (EC50) in data set [1] of 2730 nM. Same read-out and setting: with `CCCNC(=O)CC[C@@H](C)[C@H]1CC[C@H]2[C@@H]3CC=C4C(C)(C)c5c(cnn5C(C)=O)C[C@]4(C)[C@H]3CC[C@]12C` the figure was 2030 nM. The compound `CC(=O)n1ncc2c1C(C)(C)C1=CC[C@H]3[C@@H]4CC[C@H]([C@H](C)CCC(=O)Nc5ccc(C)cc5)[C@@]4(C)CC[C@@H]3[C@@]1(C)C2` returned a 50% effective concentration (EC50) in data set [1] of 5410 nM.

On to `C=CCC(O)(CC=C)CCC[C@@H](C)[C@H]1CC[C@H]2[C@@H]3[C@@H](O)C=C4C(C)(C)[C@@H](O)CC[C@]4(C)[C@H]3CC[C@]12C`, for which the Activity entry in data set [2] is listed as “Toxic”. Besides, the 50% effective concentration (EC50) in data set [1] came to 410 nM. For `CC(=O)n1cnc2c1C(C)(C)C1=C[C@H](O)[C@H]3[C@@H]4CC[C@H]([C@H](C)CCC(=O)N5CCOCC5)[C@@]4(C)CC[C@@H]3[C@@]1(C)C2` the same measures were “Toxic” and 8160 nM. With `CC(=O)n1ncc2c1C(C)(C)C1=CC[C@H]3[C@@H]4CC[C@H]([C@H](C)CCC(=O)N5CCCCC5)[C@@]4(C)CC[C@@H]3[C@@]1(C)C2`, the concentration for a half-maximal effect (EC50) in data set [1] worked out at 1260 nM. In other words, the single-digit micromolar range. As for `C[C@H](CCC(=O)O)[C@H]1CC[C@H]2[C@@H]3CC=C4C(C)(C)c5sc(N)nc5C[C@]4(C)[C@H]3CC[C@]12C`, the Activity entry in data set [2] is recorded as “Non-Toxic”. The compound also came in with an EC50 in data set [1] of 4940 nM. In data set [1], `C[C@H](CCC(=O)N1CCOCC1)[C@H]1CC[C@H]2[C@@H]3CC=C4C(C)(C)c5nc(N)ncc5C[C@]4(C)[C@H]3CC[C@]12C` returned an EC50 of 8250 nM.

As to `C=C(C)C(=O)n1cnc2c1C(C)(C)C1=CC[C@H]3[C@@H]4CC[C@H]([C@H](C)CCC(=O)N5CCOCC5)[C@@]4(C)CC[C@@H]3[C@@]1(C)C2`, the Activity entry in data set [2] was “Non-Toxic”. The EC50 in data set [1] is 760 nM. Compound `CC(=O)n1ncc2c1C(C)(C)C1=CC[C@H]3[C@@H]4CC[C@H]([C@H](C)CCC(=O)Nc5nc6ccccc6s5)[C@@]4(C)CC[C@@H]3[C@@]1(C)C2` had a half-maximal effective concentration (EC50) in data set [1] of 31400 nM. In data set [1], `CC(=O)n1cnc2c1C(C)(C)C1=CC[C@H]3[C@@H]4CC[C@H]([C@H](C)CC(=O)N5CCOCC5)[C@@]4(C)CC[C@@H]3[C@@]1(C)C2` registered a concentration giving a half-maximal response (EC50) of 280 nM. Take `C[C@H](CCC(=O)O)[C@H]1CC[C@H]2[C@@H]3CC=C4C(C)(C)c5nccnc5C[C@]4(C)[C@H]3CC[C@]12C`: the Activity entry in data set [2] is reported as “Non-Toxic”. The same compound gave an EC50 in data set [1] of 5020 nM. Turning to `CC(=O)n1ncc2c1C(C)(C)C1=CC[C@H]3[C@@H]4CC[C@H]([C@H](C)CCC(=O)O)[C@@]4(C)CC[C@@H]3[C@@]1(C)C2`, the Activity result in data set [2] is reported as “Non-Toxic”. In addition, a half-maximal response in data set [1] (EC50) required 2660 nM. As for `C=CCC(O)(CC=C)CCC[C@@H](C)[C@H]1CC[C@H]2[C@@H]3[C@@H](O)C=C4C(C)(C)[C@@H](O)CC[C@]4(C)[C@H]3CC[C@]12C.Cl`, the Activity entry in data set [2] is “Toxic”. Also, the concentration giving a half-maximal response (EC50) in data set [1] amounted to 430 nM. As for `CC(=O)n1ncc2c1C(C)(C)C1=CC[C@H]3[C@@H]4CC[C@H]([C@H](C)CCC(=O)NC5CCOCC5)[C@@]4(C)CC[C@@H]3[C@@]1(C)C2`, the 50% effective concentration (EC50) in data set [1] was found to be 480 nM. In other words, the sub-micromolar range. For the compound `CCC(O)(CC)CCCC[C@@H](C)[C@H]1CC[C@H]2[C@@H]3[C@@H](O)C=C4C(C)(C)[C@@H](O)CC[C@]4(C)[C@H]3CC[C@]12C`, the Activity result in data set [2] is “Toxic”. In data set [1], this compound came in with an EC50 of 410 nM. For `CC(=O)n1cnc2c1C(C)(C)C1=CC[C@H]3[C@@H]4CC[C@H]([C@H](C)CCCCC(=O)N5CCOCC5)[C@@]4(C)CC[C@@H]3[C@@]1(C)C2`, the half-maximal effective concentration (EC50) in data set [1] was determined as 1090 nM. As to `C[C@H](CCCCC(C)(C)O)[C@H]1CC[C@H]2[C@@H]3[C@@H](O)C=C4C(C)(C)[C@@H](O)CC[C@]4(C)[C@H]3CC[C@]12C`, the Activity entry in data set [2] is recorded as “Toxic”. Moreover, the EC50 in data set [1] came to 410 nM. For `CCC(O)(CC)CCC[C@@H](C)[C@H]1CC[C@H]2[C@@H]3[C@@H](O)C=C4C(C)(C)[C@@H](O)CC[C@]4(C)[C@H]3CC[C@]12C` the same measures were “Toxic” and 410 nM. As for `CC(C)C(=O)n1cnc2c1C(C)(C)C1=C[C@H](O)[C@H]3[C@@H]4CC[C@H]([C@H](C)CCC(=O)N5CCOCC5)[C@@]4(C)CC[C@@H]3[C@@]1(C)C2`, the Activity entry in data set [2] was “Toxic”. Besides, in data set [1], the EC50 was determined as 730 nM. `C[C@H](CCC(=O)O)[C@H]1CC[C@H]2[C@@H]3CC=C4C(C)(C)c5[nH]ncc5C[C@]4(C)[C@H]3CC[C@]12C`: the Activity entry in data set [2] is on record as “Non-Toxic”. The EC50 in data set [1] was found to be 3990 nM.

For the compound `CCNC(=O)CC[C@@H](C)[C@H]1CC[C@H]2[C@@H]3CC=C4C(C)(C)c5c(cnn5C(C)=O)C[C@]4(C)[C@H]3CC[C@]12C`, a half-maximal effect in data set [1] (EC50) was put at 1630 nM. In other words, the single-digit micromolar range. Consider `C[C@H](CCCC(C)(C)O)[C@H]1CC[C@H]2[C@@H]3[C@@H](O)C=C4C(C)(C)[C@@H](O)CC[C@]4(C)[C@H]3CC[C@]12C`, for which the Activity entry in data set [2] is recorded as “Toxic”. Moreover, the EC50 in data set [1] is 410 nM. Take `Cc1nc2c(o1)C(C)(C)C1=CC[C@H]3[C@@H]4CC[C@H]([C@H](C)CCC(=O)N5CCOCC5)[C@@]4(C)CC[C@@H]3[C@@]1(C)C2`: the response in data set [1] was half-maximal at 28100 nM (EC50). That is a double-digit micromolar value.

In data set [1], `C[C@H](CCC(=O)N1CCOCC1)[C@H]1CC[C@H]2[C@@H]3CC=C4C(C)(C)c5nnsc5C[C@]4(C)[C@H]3CC[C@]12C` gave an EC50 of 830 nM. Same read-out and setting: for `CCOC(=O)c1noc2c1C[C@@]1(C)C(=CC[C@H]3[C@@H]4CC[C@H]([C@H](C)CCC(=O)N5CCOCC5)[C@@]4(C)CC[C@@H]31)C2(C)C` the value was 1840 nM.
